Results reported in ChEMBL document CHEMBL1909046, “DrugMatrix in vitro pharmacology data”.

Tests used:
Melanocortin receptor 4 = Melanocortin receptor 4 (Homo sapiens, UniProt P32245); type: cell membranes, Membrane; details: hek293; further: in other assays of this panel Not Active means under 50% inhibition at 10 µM
Histamine H2 receptor = Histamine H2 receptor (Homo sapiens, UniProt P25021); type: cell membranes, CHO-K1, Membrane; details: cho-k1; further: in other assays of this panel Not Active means under 50% inhibition at 10 µM
Histamine H2 receptor, sequence (P25021 whole entry): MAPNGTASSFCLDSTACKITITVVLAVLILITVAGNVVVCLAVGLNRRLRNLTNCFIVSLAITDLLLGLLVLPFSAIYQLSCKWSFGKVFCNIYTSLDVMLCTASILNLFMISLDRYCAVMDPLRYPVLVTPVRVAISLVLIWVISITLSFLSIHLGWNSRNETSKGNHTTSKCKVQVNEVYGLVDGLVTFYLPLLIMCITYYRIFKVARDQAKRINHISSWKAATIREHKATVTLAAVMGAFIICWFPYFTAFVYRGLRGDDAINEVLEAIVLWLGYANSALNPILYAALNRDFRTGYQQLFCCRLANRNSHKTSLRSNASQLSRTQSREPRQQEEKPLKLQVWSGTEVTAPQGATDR

[1] = DRUGMATRIX: Tumor Necrosis Factor (TNF), Non-Selective radioligand binding (ligand: [125I] TNF-alpha); type: cell membranes, Membrane; details: u-937; Not Active = under 50% inhibition at 10 µM
Endothelin-1 receptor = target: T1, Endothelin-1 receptor (Homo sapiens, UniProt P25101); type: cell membranes, Membrane; details: cho-k1; further: in other assays of this panel Not Active means under 50% inhibition at 10 µM
T1 sequence (P25101 whole entry): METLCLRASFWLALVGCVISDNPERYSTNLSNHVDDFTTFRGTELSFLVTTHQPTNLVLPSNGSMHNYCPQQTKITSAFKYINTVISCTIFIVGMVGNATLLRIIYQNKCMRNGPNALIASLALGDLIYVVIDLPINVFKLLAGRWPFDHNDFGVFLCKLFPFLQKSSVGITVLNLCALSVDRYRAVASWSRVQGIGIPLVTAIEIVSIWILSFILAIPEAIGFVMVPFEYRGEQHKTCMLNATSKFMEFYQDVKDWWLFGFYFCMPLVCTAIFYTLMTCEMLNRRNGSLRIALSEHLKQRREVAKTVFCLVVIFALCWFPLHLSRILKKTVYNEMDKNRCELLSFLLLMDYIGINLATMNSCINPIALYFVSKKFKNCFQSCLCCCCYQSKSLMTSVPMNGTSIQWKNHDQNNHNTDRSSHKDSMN

Melanocortin receptor 3 = Melanocortin receptor 3 (Homo sapiens, UniProt P41968); type: cell membranes, Membrane; details: hek293; further: in other assays of this panel Not Active means under 50% inhibition at 10 µM
Melanocortin receptor 3, sequence (P41968 whole entry): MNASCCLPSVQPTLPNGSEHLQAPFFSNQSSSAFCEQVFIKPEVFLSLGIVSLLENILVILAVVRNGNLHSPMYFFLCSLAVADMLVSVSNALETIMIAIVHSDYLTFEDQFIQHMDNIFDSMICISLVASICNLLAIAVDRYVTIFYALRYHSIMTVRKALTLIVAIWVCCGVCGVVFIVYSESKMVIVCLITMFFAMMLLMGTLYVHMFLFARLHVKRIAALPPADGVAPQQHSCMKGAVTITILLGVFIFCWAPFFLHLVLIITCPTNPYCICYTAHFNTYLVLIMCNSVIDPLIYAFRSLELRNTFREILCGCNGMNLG

[2] = DRUGMATRIX: Potassium Channel [KATP] radioligand binding (ligand: [3H] Glyburide); type: cell membranes, Membrane; details: hit-t15, Not Active = under 50% inhibition at 10 µM
[3] = target: T2, Alpha-1D adrenergic receptor (Homo sapiens, UniProt P25100); type: cell membranes, HEK293, Membrane; details: hek293; further: in other assays of this panel Not Active means under 50% inhibition at 10 µM
T2 sequence (P25100 whole entry): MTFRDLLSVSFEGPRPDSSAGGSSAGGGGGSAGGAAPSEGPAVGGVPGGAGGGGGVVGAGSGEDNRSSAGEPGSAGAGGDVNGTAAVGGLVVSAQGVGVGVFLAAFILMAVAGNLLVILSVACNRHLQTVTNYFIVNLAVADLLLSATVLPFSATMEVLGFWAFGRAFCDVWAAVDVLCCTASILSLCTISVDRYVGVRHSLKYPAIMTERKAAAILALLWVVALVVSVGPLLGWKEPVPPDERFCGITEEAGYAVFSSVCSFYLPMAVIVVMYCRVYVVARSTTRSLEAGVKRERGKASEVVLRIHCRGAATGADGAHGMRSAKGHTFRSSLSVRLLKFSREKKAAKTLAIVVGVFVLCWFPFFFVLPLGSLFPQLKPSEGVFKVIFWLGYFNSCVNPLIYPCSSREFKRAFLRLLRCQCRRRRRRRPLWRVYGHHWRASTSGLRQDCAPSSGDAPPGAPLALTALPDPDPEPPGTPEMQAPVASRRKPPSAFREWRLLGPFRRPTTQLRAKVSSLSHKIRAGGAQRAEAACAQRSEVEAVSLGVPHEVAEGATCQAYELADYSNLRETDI

Melanocortin receptor 4, sequence (P32245 whole entry): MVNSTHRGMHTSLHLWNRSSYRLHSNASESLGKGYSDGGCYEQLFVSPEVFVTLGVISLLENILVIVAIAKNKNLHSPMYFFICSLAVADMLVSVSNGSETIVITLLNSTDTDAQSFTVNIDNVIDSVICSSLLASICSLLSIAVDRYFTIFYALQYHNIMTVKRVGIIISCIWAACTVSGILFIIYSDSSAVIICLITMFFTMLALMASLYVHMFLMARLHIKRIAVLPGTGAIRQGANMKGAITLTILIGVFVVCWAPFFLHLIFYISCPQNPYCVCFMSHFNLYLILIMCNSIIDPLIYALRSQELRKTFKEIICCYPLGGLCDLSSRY

Row | Compound | IC50 (Melanocortin receptor 4) | IC50 (Histamine H2 receptor) | IC50 [1] | Ki [1] | IC50 (Endothelin-1 receptor) | IC50 (Melanocortin receptor 3) | IC50 ([2]; read-out: IC50) [nM] | Ki ([2]; read-out: Ki) [nM] | IC50 [3] | IC50 [2] | Ki [2] | Ki (Melanocortin receptor 4) | Ki (Histamine H2 receptor) | Ki (Endothelin-1 receptor) | Ki (Melanocortin receptor 3) | Ki [3]
1 | CC(C)[C@H]1CC[C@H](C(=O)N[C@H](Cc2ccccc2)C(=O)O)CC1 [NATEGLINIDE] | Not Active | Not Active | Not Active | Not Active | Not Active | Not Active | 1670 | 189 | Not Active |  |  |  |  |  |  | 
2 | CCN[C@@H]1C[C@H](N)[C@@H](O[C@H]2OC(CN)=CC[C@H]2N)[C@H](O)[C@H]1O[C@H]1OC[C@](C)(O)[C@H](NC)[C@H]1O [NETILMICIN] | Not Active | Not Active | Not Active | Not Active | Not Active | Not Active |  |  | Not Active | Not Active | Not Active |  |  |  |  | 
3 | COC(=O)C1=C(C)NC(C)=C(C(=O)OCC(C)C)C1c1ccccc1[N+](=O)[O-] (configuration not stated) [NISOLDIPINE] | Not Active | Not Active | Not Active | Not Active | Not Active | Not Active |  |  | Not Active | Not Active | Not Active |  |  |  |  | 
4 | CCOC(=O)C1=C(C)NC(C)=C(C(=O)OC)C1c1cccc([N+](=O)[O-])c1 (configuration not stated) [NITRENDIPINE] | Not Active | Not Active | Not Active | Not Active | Not Active | Not Active |  |  | Not Active | Not Active | Not Active |  |  |  |  | 
5 | C#C[C@]1(OC(C)=O)CC[C@H]2[C@@H]3CCC4=CC(=O)CC[C@@H]4[C@H]3CC[C@@]21C [NORETHINDRONE ACETATE] | Not Active | Not Active | Not Active | Not Active | Not Active | Not Active |  |  | Not Active | Not Active | Not Active |  |  |  |  | 
6 | COc1ccc2[nH]c([S+]([O-])Cc3ncc(C)c(OC)c3C)nc2c1 (configuration not stated) [OMEPRAZOLE] | Not Active | Not Active | Not Active | Not Active | Not Active | Not Active |  |  | Not Active | Not Active | Not Active |  |  |  |  | 
7 | Cc1nccn1CC1CCc2c(c3ccccc3n2C)C1=O (configuration not stated) [ONDANSETRON] | Not Active | Not Active | Not Active | Not Active | Not Active | Not Active |  |  | Not Active | Not Active | Not Active |  |  |  |  | 
8 | CCn1cc(C(=O)O)c(=O)c2cc(F)c(N3CCN(C)CC3)cc21 [PEFLOXACIN] | Not Active | Not Active | Not Active | Not Active | Not Active | Not Active |  |  | Not Active | Not Active | Not Active |  |  |  |  | 
9 | CCCCOc1ccc(OCCCN2CCOCC2)cc1 [PRAMOXINE] | Not Active | Not Active | Not Active | Not Active | Not Active | Not Active |  |  | Not Active | Not Active | Not Active |  |  |  |  | 
10 | O=C(C1CCCCC1)N1CC(=O)N2CCc3ccccc3C2C1 (configuration not stated) [PRAZIQUANTEL] | Not Active | Not Active | Not Active | Not Active | Not Active | Not Active |  |  | Not Active | Not Active | Not Active |  |  |  |  | 
11 | CCN(CC)CCOC(=O)c1ccc(N)cc1 [PROCAINE] | Not Active | Not Active | Not Active | Not Active | Not Active | Not Active |  |  | Not Active | Not Active | Not Active |  |  |  |  | 
12 | CCCN(CCC)C(=O)C(CCC(=O)O)NC(=O)c1ccccc1 (configuration not stated) [PROGLUMIDE] | Not Active | Not Active | Not Active | Not Active | Not Active | Not Active |  |  | Not Active | Not Active | Not Active |  |  |  |  | 
13 | NC(=O)c1cnccn1 [PYRAZINAMIDE] | Not Active | Not Active | Not Active | Not Active | Not Active | Not Active |  |  | Not Active | Not Active | Not Active |  |  |  |  | 
14 | OC(CCN1CCCCC1)(c1ccccc1)C1CCCCC1 (configuration not stated) [TRIHEXYPHENIDYL] | Not Active | Not Active | Not Active | Not Active | Not Active | Not Active |  |  | Not Active | Not Active | Not Active |  |  |  |  | 
15 | Cc1cc2cc3c(C)cc(=O)oc3c(C)c2o1 [TRIOXSALEN] | Not Active | Not Active | Not Active | Not Active | Not Active | Not Active |  |  | Not Active | Not Active | Not Active |  |  |  |  | 
16 | CCCC(CCC)C(=O)O [VALPROIC ACID] | Not Active | Not Active | Not Active | Not Active | Not Active | Not Active |  |  | Not Active | Not Active | Not Active |  |  |  |  | 
17 | CCC1=C[C@@H]2CN(C1)Cc1c([nH]c3ccccc13)[C@@](C(=O)OC)(c1cc3c(cc1OC)N(C)[C@H]1[C@@](O)(C(=O)OC)[C@H](OC(C)=O)[C@]4(CC)C=CCN5CC[C@]31[C@@H]54)C2 [VINORELBINE] | Not Active | Not Active | Not Active | Not Active | Not Active | Not Active |  |  | Not Active | Not Active | Not Active |  |  |  |  | 
18 | CADMIUM DICHLORIDE | Not Active | Not Active | Not Active | Not Active | Not Active | Not Active |  |  | Not Active | Not Active | Not Active | Not Active | Not Active | Not Active | Not Active | Not Active
